Source: patent US11034672B1, “Tyrosine kinase inhibitor compositions, methods of making and methods of use” (Black Diamond Therapeutics, Inc., priority 2018, dated 2021)
pIC50: −log10 of the molar value.

Columns and labels:
Type in all cases: cell-based
[1] = molecular target: T1, HER2 YVMA (Homo sapiens, UniProt P04626, INS775YVMA); assay: BaF3 cell proliferation assay, HER2 YVMA (Table B); details: potency code, 3 days, CellTiterGlo, read-out: HER2 YVMA (Activity for Inhibiting HER2)
T1 construct: expressed in transfected cells; host or cells: BaF3 (murine pro-B)

[2] = molecular target: T2, EGFR WT (Homo sapiens, UniProt P00533); assay: Activity for inhibiting EGFR (Table A), EGFR WT; details: read-out: EGFR WT, potency code (IC50)
[3] = molecular target: T3, HER2 S310F (Homo sapiens, UniProt P04626, S310F); assay: BaF3 cell proliferation assay, HER2 S310F (Table B); details: potency code, 3 days, CellTiterGlo, read-out: HER2 S310F (Activity for Inhibiting HER2)
T3 construct: expressed in transfected cells; host or cells: BaF3 (murine pro-B)

[4] = molecular target: T2, EGFR WT; assay: BaF3 cell proliferation assay, EGFR WT (Table A); details: potency code, 3 days, CellTiterGlo, read-out: EGFR WT (Activity for Inhibiting EGFR)
How it was run: (§1)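 EC50s reflect growth of IL-3-independent BaF3 lines whose proliferation depends on the introduced human receptor variant. Lines were produced by retroviral infection and one week of 10 μg/ml Blasticidin selection.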

[5] = molecular target: T1, HER2 YVMA; assay: Activity for inhibiting HER2 (Table B), HER2 YVMA; details: read-out: HER2 YVMA, potency code (IC50)
Description: (§2) EC50 values were determined with the same application.

[6] = molecular target: T4, HER2 WT (Homo sapiens, UniProt P04626); assay: BaF3 cell proliferation assay, HER2 WT (Table B); details: potency code, 3 days, CellTiterGlo, read-out: HER2 WT (Activity for Inhibiting HER2)
[7] = molecular target: T5, EGFR V3 (Homo sapiens, UniProt P00533, DELINS30-297G); assay: Activity for inhibiting EGFR (Table A), EGFR V3 (EGFR-Viii); details: read-out: EGFR V3, potency code (IC50)
T5 construct: expressed in transfected cells; host or cells: BaF3 (murine pro-B), retroviral pMXs-IRES-Blasticidin

[8] = molecular target: T4, HER2 WT; assay: Activity for inhibiting HER2 (Table B), HER2 WT
[9] = molecular target: T5, EGFR V3; assay: BaF3 cell proliferation assay, EGFR V3 (Table A); details: potency code, 3 days, CellTiterGlo, read-out: EGFR V3 (Activity for Inhibiting EGFR)
How it was run: as §1

[10] = molecular target: T3, HER2 S310F; assay: Activity for inhibiting HER2 (Table B), HER2 S310F; details: read-out: HER2 S310F, potency code (IC50)
Description: as §2

[11] = Table B, read-out: HER2 WT, potency code (IC50)
[12] = text lists of compounds, read-out: IC50 value for inhibiting wild-type HER2

T1 sequence (P04626 with tags, fused parts or gaps INS775YVMA): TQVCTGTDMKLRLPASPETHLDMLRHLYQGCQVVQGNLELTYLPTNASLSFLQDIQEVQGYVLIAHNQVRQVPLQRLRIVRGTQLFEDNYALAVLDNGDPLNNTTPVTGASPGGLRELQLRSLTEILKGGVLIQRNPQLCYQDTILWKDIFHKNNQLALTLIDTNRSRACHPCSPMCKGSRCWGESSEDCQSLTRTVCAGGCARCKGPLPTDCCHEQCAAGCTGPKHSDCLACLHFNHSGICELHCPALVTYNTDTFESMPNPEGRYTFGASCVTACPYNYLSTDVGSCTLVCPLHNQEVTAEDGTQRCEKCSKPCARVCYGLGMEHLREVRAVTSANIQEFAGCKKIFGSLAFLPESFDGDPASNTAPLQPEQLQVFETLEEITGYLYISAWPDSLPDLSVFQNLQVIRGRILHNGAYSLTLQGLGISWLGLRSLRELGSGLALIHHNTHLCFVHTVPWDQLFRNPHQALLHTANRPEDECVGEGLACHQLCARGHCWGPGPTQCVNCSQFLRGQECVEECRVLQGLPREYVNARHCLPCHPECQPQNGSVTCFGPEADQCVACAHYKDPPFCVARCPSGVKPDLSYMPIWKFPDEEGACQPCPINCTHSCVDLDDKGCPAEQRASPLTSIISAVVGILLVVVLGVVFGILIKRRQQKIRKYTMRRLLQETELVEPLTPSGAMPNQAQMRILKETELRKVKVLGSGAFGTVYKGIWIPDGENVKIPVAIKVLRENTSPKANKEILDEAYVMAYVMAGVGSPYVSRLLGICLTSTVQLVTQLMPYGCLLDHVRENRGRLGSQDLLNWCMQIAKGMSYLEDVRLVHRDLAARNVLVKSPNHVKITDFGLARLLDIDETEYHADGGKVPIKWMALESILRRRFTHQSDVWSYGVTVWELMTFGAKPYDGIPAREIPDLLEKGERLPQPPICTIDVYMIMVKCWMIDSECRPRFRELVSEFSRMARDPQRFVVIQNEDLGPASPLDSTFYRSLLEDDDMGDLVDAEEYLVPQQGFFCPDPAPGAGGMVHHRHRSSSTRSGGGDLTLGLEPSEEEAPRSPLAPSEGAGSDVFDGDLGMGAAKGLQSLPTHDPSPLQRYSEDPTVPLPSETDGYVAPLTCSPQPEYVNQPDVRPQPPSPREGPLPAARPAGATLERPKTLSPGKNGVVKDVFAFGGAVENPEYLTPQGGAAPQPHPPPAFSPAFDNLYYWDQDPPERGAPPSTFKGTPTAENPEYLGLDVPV
T3 sequence (P04626 23-1255 S310F): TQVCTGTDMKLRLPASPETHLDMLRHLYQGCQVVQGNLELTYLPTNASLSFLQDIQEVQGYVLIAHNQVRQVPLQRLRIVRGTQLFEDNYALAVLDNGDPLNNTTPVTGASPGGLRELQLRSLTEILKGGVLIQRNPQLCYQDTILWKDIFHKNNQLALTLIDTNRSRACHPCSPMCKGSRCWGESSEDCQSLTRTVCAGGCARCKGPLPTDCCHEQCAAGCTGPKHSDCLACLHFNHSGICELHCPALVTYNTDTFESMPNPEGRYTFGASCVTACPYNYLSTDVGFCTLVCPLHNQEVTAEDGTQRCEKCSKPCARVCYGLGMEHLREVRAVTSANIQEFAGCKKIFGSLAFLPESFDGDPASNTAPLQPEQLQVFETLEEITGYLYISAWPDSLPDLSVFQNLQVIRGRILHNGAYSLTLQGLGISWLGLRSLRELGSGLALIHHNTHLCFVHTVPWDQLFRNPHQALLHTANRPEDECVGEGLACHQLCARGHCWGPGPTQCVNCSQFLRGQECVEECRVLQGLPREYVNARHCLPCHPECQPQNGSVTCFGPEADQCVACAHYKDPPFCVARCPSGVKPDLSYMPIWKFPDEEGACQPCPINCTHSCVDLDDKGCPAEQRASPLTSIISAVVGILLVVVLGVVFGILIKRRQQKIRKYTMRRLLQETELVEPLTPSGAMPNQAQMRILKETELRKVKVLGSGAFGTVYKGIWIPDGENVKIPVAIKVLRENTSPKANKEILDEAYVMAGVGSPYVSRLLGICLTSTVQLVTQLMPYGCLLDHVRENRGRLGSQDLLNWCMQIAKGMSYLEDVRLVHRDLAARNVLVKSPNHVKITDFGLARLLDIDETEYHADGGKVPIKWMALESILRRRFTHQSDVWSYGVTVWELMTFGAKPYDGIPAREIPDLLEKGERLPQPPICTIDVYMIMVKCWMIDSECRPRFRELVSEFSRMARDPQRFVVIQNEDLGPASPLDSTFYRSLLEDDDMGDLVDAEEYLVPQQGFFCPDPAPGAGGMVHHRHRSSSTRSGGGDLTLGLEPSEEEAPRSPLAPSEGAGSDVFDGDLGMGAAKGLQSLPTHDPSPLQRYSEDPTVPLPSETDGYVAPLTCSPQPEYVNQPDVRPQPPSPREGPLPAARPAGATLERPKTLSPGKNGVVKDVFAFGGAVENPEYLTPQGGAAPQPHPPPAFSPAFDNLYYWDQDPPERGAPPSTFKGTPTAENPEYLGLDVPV
T4 sequence (P04626 23-1255): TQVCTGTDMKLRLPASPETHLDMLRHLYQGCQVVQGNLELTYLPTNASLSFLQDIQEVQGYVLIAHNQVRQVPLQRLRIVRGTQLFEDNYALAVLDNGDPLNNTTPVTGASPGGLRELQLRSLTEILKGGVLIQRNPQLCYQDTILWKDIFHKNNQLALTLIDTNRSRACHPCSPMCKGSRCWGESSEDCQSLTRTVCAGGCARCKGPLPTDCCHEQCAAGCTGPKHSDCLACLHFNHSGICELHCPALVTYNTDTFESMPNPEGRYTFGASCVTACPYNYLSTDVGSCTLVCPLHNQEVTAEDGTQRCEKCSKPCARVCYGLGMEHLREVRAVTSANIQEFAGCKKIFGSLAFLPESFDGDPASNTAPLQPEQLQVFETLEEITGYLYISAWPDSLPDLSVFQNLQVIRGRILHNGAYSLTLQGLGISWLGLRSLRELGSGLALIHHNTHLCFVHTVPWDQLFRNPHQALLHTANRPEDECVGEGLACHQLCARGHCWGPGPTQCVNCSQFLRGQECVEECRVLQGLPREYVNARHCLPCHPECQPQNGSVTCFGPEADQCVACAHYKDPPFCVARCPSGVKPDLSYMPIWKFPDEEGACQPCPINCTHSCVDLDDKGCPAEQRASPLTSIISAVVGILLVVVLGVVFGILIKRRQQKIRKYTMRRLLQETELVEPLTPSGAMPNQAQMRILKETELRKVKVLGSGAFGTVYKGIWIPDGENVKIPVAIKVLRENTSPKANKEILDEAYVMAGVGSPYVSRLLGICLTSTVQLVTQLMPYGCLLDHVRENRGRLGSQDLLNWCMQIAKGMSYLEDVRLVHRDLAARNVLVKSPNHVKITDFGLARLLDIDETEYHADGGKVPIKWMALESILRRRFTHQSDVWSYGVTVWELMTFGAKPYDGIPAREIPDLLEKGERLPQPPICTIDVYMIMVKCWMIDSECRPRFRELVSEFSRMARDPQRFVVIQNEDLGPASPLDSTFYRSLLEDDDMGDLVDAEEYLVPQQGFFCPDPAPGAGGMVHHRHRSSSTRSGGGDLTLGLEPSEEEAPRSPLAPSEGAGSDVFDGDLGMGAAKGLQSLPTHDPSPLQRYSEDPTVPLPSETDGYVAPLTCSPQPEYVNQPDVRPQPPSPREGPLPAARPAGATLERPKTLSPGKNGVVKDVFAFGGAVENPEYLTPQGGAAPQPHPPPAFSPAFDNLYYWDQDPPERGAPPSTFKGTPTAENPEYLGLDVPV
T5 sequence (P00533 with tags, fused parts or gaps DELINS30-297G): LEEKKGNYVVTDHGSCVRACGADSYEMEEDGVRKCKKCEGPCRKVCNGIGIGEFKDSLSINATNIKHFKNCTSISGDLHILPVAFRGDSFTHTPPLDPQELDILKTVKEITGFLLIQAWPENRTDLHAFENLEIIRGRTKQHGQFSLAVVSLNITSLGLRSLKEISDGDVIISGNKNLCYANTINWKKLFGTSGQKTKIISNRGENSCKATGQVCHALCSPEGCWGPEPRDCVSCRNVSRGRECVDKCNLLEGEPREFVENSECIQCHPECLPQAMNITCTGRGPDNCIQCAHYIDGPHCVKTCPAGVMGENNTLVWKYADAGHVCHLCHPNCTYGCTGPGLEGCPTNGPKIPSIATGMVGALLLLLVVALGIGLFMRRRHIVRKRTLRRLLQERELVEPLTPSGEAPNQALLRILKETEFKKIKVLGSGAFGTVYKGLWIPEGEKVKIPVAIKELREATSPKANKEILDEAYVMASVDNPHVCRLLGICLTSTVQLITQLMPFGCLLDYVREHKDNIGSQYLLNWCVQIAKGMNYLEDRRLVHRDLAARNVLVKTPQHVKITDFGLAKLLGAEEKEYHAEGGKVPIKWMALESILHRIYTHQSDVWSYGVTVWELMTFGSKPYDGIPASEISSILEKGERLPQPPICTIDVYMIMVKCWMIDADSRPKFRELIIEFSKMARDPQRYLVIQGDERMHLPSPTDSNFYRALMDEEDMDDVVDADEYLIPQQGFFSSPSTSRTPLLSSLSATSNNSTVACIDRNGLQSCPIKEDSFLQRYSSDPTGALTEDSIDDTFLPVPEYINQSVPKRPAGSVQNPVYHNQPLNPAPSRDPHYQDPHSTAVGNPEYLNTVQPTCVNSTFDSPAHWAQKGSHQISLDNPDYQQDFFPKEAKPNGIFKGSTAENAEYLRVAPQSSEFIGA

Compound	pIC50 [1]	pIC50 [2]	pIC50 [3]	pIC50 [4]	pIC50 [5]	pIC50 [6]	pIC50 [7]	pIC50 [8, 11]	pIC50 [8, 12]	pIC50 [9]	pIC50 [10]
C=CC(=O)Nc1cc2c(Nc3ccc(OCc4ccccn4)c(Cl)c3)ncnc2cc1OCCn1ccnc1 [compound 10]	6.52 to 6.70	< 6.00	7.52 to 7.70	< 6.00	6.52 to 6.70	7.70 to 8.00	7.00 to 7.30	7.70 to 8.00	≥ 7.70	7.00 to 7.30	7.52 to 7.70
C=CC(=O)Nc1cc2c(Nc3ccc(OCc4ccccn4)c(Cl)c3)ncnc2cc1OC1CCN(C)C1 (centres unmarked) [compound 16]	7.30 to 7.52	6.52 to 6.70	7.52 to 7.70	6.52 to 6.70	7.30 to 7.52	> 8.30	7.52 to 7.70	> 8.30	≥ 8.30	7.52 to 7.70	7.52 to 7.70
C=CC(=O)Nc1cc2c(Nc3ccc(OCc4ccccn4)c(Cl)c3)ncnc2cc1O[C@H]1CCN(C)C1 [compound 18]	7.00 to 7.30	6.30 to 6.52	7.52 to 7.70	6.30 to 6.52	7.00 to 7.30	8.00 to 8.30	7.52 to 7.70	8.00 to 8.30	≥ 8.00	7.52 to 7.70	7.52 to 7.70
C=CC(=O)Nc1cc2c(Nc3ccc(OCc4ccccn4)c(Cl)c3)ncnc2cc1OCCN1CCC(OC)C1 (centres unmarked) [compound 29]	7.00 to 7.30	6.30 to 6.52	7.70 to 8.00	6.30 to 6.52	7.00 to 7.30	> 8.30	7.52 to 7.70	> 8.30	≥ 8.30	7.52 to 7.70	7.70 to 8.00
C=CC(=O)Nc1cc2c(Nc3ccc(OCc4ccccn4)c(Cl)c3)ncnc2cc1OCCN1CCC(O)C1 (centres unmarked) [compound 30]	6.70 to 7.00		7.70 to 8.00	6.30 to 6.52	6.70 to 7.00	> 8.30	7.30 to 7.52	> 8.30	≥ 8.30	7.30 to 7.52	7.70 to 8.00
C=CC(=O)Nc1cc2c(Nc3ccc(OCc4ccccn4)c(Cl)c3)ncnc2cc1OCCN(C)CC [compound 32]	7.00 to 7.30	6.30 to 6.52	7.70 to 8.00	6.30 to 6.52	7.00 to 7.30	> 8.30	7.52 to 7.70	> 8.30	≥ 8.30	7.52 to 7.70	7.70 to 8.00
C=CC(=O)Nc1cc2c(Nc3ccc(OCc4ccccn4)c(Cl)c3)ncnc2cc1OCCN1CC(F)C1 [compound 34]	7.00 to 7.30	6.00 to 6.30	7.70 to 8.00	6.00 to 6.30	7.00 to 7.30	7.70 to 8.00	7.30 to 7.52	7.70 to 8.00	≥ 7.70	7.30 to 7.52	7.70 to 8.00
C=CC(=O)Nc1cc2c(Nc3ccc(OCc4ccccn4)c(Cl)c3)ncnc2cc1OCCN1CC2(COC2)C1 [compound 38]	7.00 to 7.30	6.30 to 6.52	7.52 to 7.70	6.30 to 6.52	7.00 to 7.30	8.00 to 8.30	7.30 to 7.52	8.00 to 8.30	≥ 8.00	7.30 to 7.52	7.52 to 7.70
C=CC(=O)Nc1cc2c(Nc3ccc(OCc4ccccn4)c(Cl)c3)ncnc2cc1N1CC(N2CCOCC2)C1 [compound 44]		6.30 to 6.52	6.30 to 6.52	6.30 to 6.52		7.00 to 7.30	6.70 to 7.00	7.00 to 7.30		6.70 to 7.00	6.30 to 6.52
C=CC(=O)Nc1cc2c(Nc3ccc(OCc4ccccn4)c(Cl)c3)ncnc2cc1N1CCC2(CCN(C)C2)C1 (centres unmarked) [compound 46]		6.30 to 6.52	6.70 to 7.00	6.30 to 6.52		7.52 to 7.70	7.00 to 7.30	7.52 to 7.70	≥ 7.30	7.00 to 7.30	6.70 to 7.00
C=CC(=O)Nc1cc2c(Nc3ccc(OCc4ccccn4)c(Cl)c3)ncnc2cc1N(C)C1CCN(C)C1 (centres unmarked) [compound 48]		< 6.00	6.30 to 6.52	< 6.00		6.70 to 7.00	6.52 to 6.70	6.70 to 7.00		6.52 to 6.70	6.30 to 6.52
C=CC(=O)Nc1cc2c(Nc3ccc(OCc4ccccn4)c(Cl)c3)ncnc2cc1N1CC2CCN(C)C2C1 (centres unmarked) [compound 49]		< 6.00	6.70 to 7.00	< 6.00		7.00 to 7.30	6.70 to 7.00	7.00 to 7.30		6.70 to 7.00	6.70 to 7.00
C=CC(=O)Nc1cc2c(Nc3ccc(OCc4ccccn4)cn3)ncnc2cc1OCCN1CCOCC1 [compound 58]		< 6.00	6.30 to 6.52	< 6.00		6.70 to 7.00	6.52 to 6.70	6.70 to 7.00		6.52 to 6.70	6.30 to 6.52
C=CC(=O)Nc1cc2c(Nc3ccc(OCc4ccccn4)cc3F)ncnc2cc1OC1CCN(C)C1 (centres unmarked) [compound 59]		6.30 to 6.52	6.70 to 7.00	6.30 to 6.52		7.30 to 7.52	7.30 to 7.52	7.30 to 7.52	≥ 7.30	7.30 to 7.52	6.70 to 7.00
C=CC(=O)Nc1cc2c(Nc3ccc(OCc4ccccn4)c(Cl)c3)ncnc2cc1C#CC(C)(C)N1CCN(C)CC1 [compound 65]	7.00 to 7.30	6.00 to 6.30	7.70 to 8.00	6.00 to 6.30	7.00 to 7.30	7.70 to 8.00	7.52 to 7.70	7.70 to 8.00	≥ 7.70	7.52 to 7.70	7.70 to 8.00
CC#CC(=O)Nc1cc2c(Nc3ccc(OCc4ccccn4)c(Cl)c3)ncnc2cc1OC1CCN(C)C1 (centres unmarked) [compound 67]	7.00 to 7.30	6.70 to 7.00	7.70 to 8.00	6.70 to 7.00	7.00 to 7.30	8.00 to 8.30	7.52 to 7.70	8.00 to 8.30	≥ 8.00	7.52 to 7.70	7.70 to 8.00
C=CC(=O)Nc1cc2c(Nc3ccc(Oc4ccc(Cl)cc4)cc3)ncnc2cc1OCCN1CCOCC1 [compound 74]		< 6.00	6.52 to 6.70	< 6.00		6.70 to 7.00	7.00 to 7.30	6.70 to 7.00		7.00 to 7.30	6.52 to 6.70
